Results as given in patent US8183264B2, “Pyridine derivative substituted by heteroaryl ring, and antifungal agent comprising the same” (Eisai R&D Managment Co., Ltd., priority 2006, dated 2012).
Values after ≈ are worked out from the molar mass of the structure shown.

Legend:
[1] = test system: C. albicans CAF2-1 strain; test: Anti-Candida activity (MIC measurement); type: cell-based; details: CAF21STRAIN, minimum inhibitory concentration (MIC) by visual inspection, RPMI 1640, 42 to 48 hours at 35° C.
Protocol: (§1) 1. Anti-Candida Activity and Anti-Aspergillus Activity
(§2) (1) Preparation of Fungal Sample
(§3) For the C. albicans CAF2-1 strain, a fungal suspension from a standing culture for 48 hours at 30° C. in a Sabouraud dextrose liquid culture medium (SDB) was diluted with RPMI 1640 medium to adjust a fungal suspension of 1.2×10^3 cells/mL. For the A. fumigatus Tsukuba strain, −80° C. stored strain was diluted with RPMI 1640 medium to adjust to a fungal suspension of 4.5×10^3 cells/mL.
(§4) (2) Preparation of an Agent Dilution Plate
(§5) Using a U-bottomed 96-well plate, 8 samples/plate (A to H) of sample dilution solutions were prepared. On the 2nd to 12th rows were dispensed 10 μL of dimethyl sulfoxide solution. Weighed sample was dissolved in dimethyl sulfoxide to prepare a 2.5 mg/mL solution, 20 μL of this solution was added to the first row of the prepared plate, and 12 steps of two-fold step dilutions (10 μL of solution+10 μL of dimethyl sulfoxide solution) were performed on the plate. This sample dilution solution was dispensed in an amount of 1 μL into a flat-bottomed 96-well plate for MIC measurement to prepare a sample dilution plate.
(§6) (3) Inoculation of Fungal Suspension and Culture
(§7) The fungal suspension prepared in (1) was used in an amount of 99 μL/well to inoculate the flat-bottomed 96-well plate containing 1 μL/well of the test compound dilution prepared in (2), and standing culture was performed aerobically for 42 to 48 hours at 35° C.
(§8) The following representative compounds prepared in the examples were measured for anti-Candida activity and anti-Aspergillus activity by measurement method in (1).

[2] = test system: A. fumigatus Tsukuba strain; test: Anti-Aspergillus activity (MIC measurement); type: cell-based; details: minimum inhibitory concentration (MIC) by visual inspection, RPMI 1640, 42 to 48 hours at 35° C.
Protocol: as §1, §2, §3, §4, §5, §6, §7, §8

## Cc1ccc(Cc2cccc(Cn3nnc(-c4cccnc4N)n3)c2)s1 [Example 52, 3-(2-(3-(5-Methyl-thiophen-2-ylmethyl)-benzyl)-2H-tetrazol-5-yl)-pyridin-2-ylamine]
[1]
  MIC: 1.56 µg/mL (≈ 4.3 µM)
[2]
  MIC: 3.13 µg/mL (≈ 8.64 µM)

## Nc1ccc(-c2cn(Cc3ccc(OCc4ccccc4)cc3)nn2)c(N)n1 [Example 4, 3-(1-(4-Benzyloxy-benzyl)-1H-[1,2,3]triazol-4-yl)-pyridin-2,6-diamine]
[1]
  MIC: 0.39 µg/mL (≈ 1.05 µM)
[2]
  MIC: 0.78 µg/mL (≈ 2.09 µM)

## Nc1ncccc1-c1nnc(Cc2ccc(OCc3ccccc3)cc2)s1 [Example 8]
[1]
  MIC: 0.78 µg/mL (≈ 2.08 µM)
[2]
  MIC: 1.56 µg/mL (≈ 4.17 µM)

## Nc1ncccc1-c1cn(Cc2ccc(OCc3ccccc3)cc2)nn1 [Example 1, 3-(1-(4-Benzyloxy-benzyl)-1H-[1,2,3]triazol-4-yl)-pyridin-2-ylamine]
[1]
  MIC: 0.05 µg/mL (≈ 0.14 µM)
[2]
  MIC: 0.2 µg/mL (≈ 0.56 µM)

## Nc1ccc(-c2nnn(Cc3ccc(OCc4ccccc4)cc3)n2)c(N)n1 [Example 7, 3-(2-(4-Benzyloxy-benzyl)-2H-tetrazol-5-yl)-pyridin-2,6-diamine]
[1]
  MIC: 0.39 µg/mL (≈ 1.04 µM)
[2]
  MIC: 1.56 µg/mL (≈ 4.18 µM)

## Nc1ncccc1-c1noc(Cc2ccc(OCc3ccccn3)cc2)n1 [Example 23]
[1]
  MIC: 1.56 µg/mL (≈ 4.34 µM)
[2]
  MIC: 6.25 µg/mL (≈ 17.4 µM)

## Nc1ncccc1-c1ncn(Cc2ccc(OCc3ccccc3)cc2)n1 [Example 14, 3-(1-(4-Benzyloxy-benzyl)-1H-[1,2,4]triazol-3-yl)-pyridin-2-ylamine]
[1]
  MIC: 6.25 µg/mL (≈ 17.5 µM)
[2]
  MIC: > 25 µg/mL

## Nc1ncccc1-c1nnn(Cc2ccn(Cc3ccccc3)c2)n1 [Example 55, 3-(2-(1-Benzyl-1H-pyrrol-3-ylmethyl)-2H-tetrazol-5-yl)-pyridin-2-ylamine]
[1]
  MIC: 0.1 µg/mL (≈ 0.302 µM)
[2]
  MIC: 0.78 µg/mL (≈ 2.35 µM)

## Nc1ccc(-c2nnn(Cc3ccc(OCc4ccccc4)cn3)n2)c(N)n1 [Example 40, 3-(2-(5-Benzyloxy-pyridin-2-ylmethyl)-2H-tetrazol-5-yl)-pyridin-2,6-diamine]
[1]
  MIC: 1.56 µg/mL (≈ 4.17 µM)
[2]
  MIC: > 25 µg/mL

## Cc1ccc(-c2cn(Cc3ccc(Cc4ccc(Cl)o4)cc3)nn2)cn1 [Example 17, 5-(1-(4-(5-Chloro-furan-2-ylmethyl)-benzyl)-1H-[1,2,3]triazol-4-yl)-2-methyl-pyridine]
[1]
  MIC: 3.13 µg/mL (≈ 8.58 µM)
[2]
  MIC: 0.78 µg/mL (≈ 2.14 µM)

## Cc1ccc(-c2cn(Cc3ccc(OCc4ccccc4)cc3)nn2)cn1 [Example 2, 5-(1-(4-Benzyloxy-benzyl)-1H-[1,2,3]triazol-4-yl)-2-methyl-pyridine]
[1]
  MIC: 3.13 µg/mL (≈ 8.78 µM)
[2]
  MIC: 1.56 µg/mL (≈ 4.38 µM)

## Nc1ncccc1-n1cc(Cc2ccc(OCc3ccccc3)cc2)nn1 [Example 12, 3-(4-(4-Benzyloxy-benzyl)-[1,2,3]triazol-1-yl)-pyridin-2-ylamine]
[1]
  MIC: 0.2 µg/mL (≈ 0.56 µM)
[2]
  MIC: 0.2 µg/mL (≈ 0.56 µM)

## Nc1ccc(-c2cn(Cc3ccc(OCc4ccccc4)cc3)nn2)cn1 [Example 3, 5-(1-(4-Benzyloxy-benzyl)-1H-[1,2,3]triazol-4-yl)-pyridin-2-ylamine]
[1]
  MIC: 1.56 µg/mL (≈ 4.36 µM)
[2]
  MIC: 0.78 µg/mL (≈ 2.18 µM)

## Nc1ncccc1-c1cn(Cc2ccc(Oc3ccccc3)cc2)nn1 [Example 32, 3-(1-(4-Phenoxy-benzyl)-1H-[1,2,3]triazol-4-yl)-pyridin-2-ylamine]
[1]
  MIC: 0.1 µg/mL (≈ 0.291 µM)
[2]
  MIC: 0.39 µg/mL (≈ 1.14 µM)

## Nc1ncccc1-c1nnn(Cc2ccc(Oc3ccccc3)cc2)n1 [Example 35, 3-(2-(4-Phenoxy-benzyl)-2H-tetrazol-5-yl)-pyridin-2-ylamine]
[1]
  MIC: 1.56 µg/mL (≈ 4.53 µM)
[2]
  MIC: 0.78 µg/mL (≈ 2.26 µM)

## Nc1ncccc1-c1nnn(Cc2ccc(Oc3ccccc3)s2)n1 [Example 46, 3-(2-(5-Phenoxy-thiophen-2-ylmethyl)-2H-tetrazol-5-yl)-pyridin-2-ylamine]
[1]
  MIC: 0.39 µg/mL (≈ 1.11 µM)
[2]
  MIC: 1.56 µg/mL (≈ 4.45 µM)

## Nc1ncccc1-c1nnc(Cc2ccc(OCc3ccccc3)cc2)[nH]1 [Example 15, 3-(5-(4-Benzyloxy-benzyl)-4H-[1,2,4]triazol-3-yl)-pyridin-2-ylamine]
[1]
  MIC: 6.25 µg/mL (≈ 17.5 µM)
[2]
  MIC: 3.13 µg/mL (≈ 8.76 µM)

## CCCCOc1ccc(Cc2nnc(-c3cccnc3N)o2)cc1 [Example 45, 3-(5-(4-Butoxy-benzyl)-[1,3,4]oxadiazol-2-yl)-pyridin-2-ylamine]
[1]
  MIC: 6.25 µg/mL (≈ 19.3 µM)
[2]
  MIC: 12.5 µg/mL (≈ 38.5 µM)

## Nc1ncccc1-c1cn(Cc2ccc(COc3ccccn3)cc2)nn1 [Example 26, 3-(1-(4-(Pyridin-2-yloxymethyl)-benzyl)-1H-[1,2,3]triazol-4-yl)-pyridin-2-ylamine]
[1]
  MIC: 0.05 µg/mL (≈ 0.14 µM)
[2]
  MIC: 0.39 µg/mL (≈ 1.09 µM)

## Nc1ncccc1-c1nnc(Cc2ccc(OCc3ccccn3)cc2)o1 [Example 24]
[1]
  MIC: 1.56 µg/mL (≈ 4.34 µM)
[2]
  MIC: 6.25 µg/mL (≈ 17.4 µM)

## Nc1ncccc1-c1nnn(Cc2ccc(Oc3ccc(F)cc3)o2)n1 [Example 51, 3-(2-(5-(4-Fluoro-phenoxy)-furan-2-ylmethyl)-2H-tetrazol-5-yl)-pyridin-2-ylamine]
[1]
  MIC: 6.25 µg/mL (≈ 17.7 µM)
[2]
  MIC: 3.13 µg/mL (≈ 8.88 µM)

## COCc1ccc(-c2nnn(Cc3ccc(OCc4ccccc4)cc3)n2)c(N)n1 [Example 6, 3-(2-(4-Benzyloxy-benzyl)-2H-tetrazol-5-yl)-6-methoxymethyl-pyridin-2-ylamine]
[1]
  MIC: 1.56 µg/mL (≈ 3.88 µM)
[2]
  MIC: 1.56 µg/mL (≈ 3.88 µM)

## Nc1ccc(-c2cn(Cc3cccc(Oc4ccccc4)c3)nn2)cn1 [Example 29, 5-(1-(3-Phenoxy-benzyl)-1H-[1,2,3]triazol-4-yl)-pyridin-2-ylamine]
[1]
  MIC: 0.39 µg/mL (≈ 1.14 µM)
[2]
  MIC: 1.56 µg/mL (≈ 4.54 µM)

## Nc1ncccc1-c1nnn(Cc2ccc(OCc3ccccc3)s2)n1 [Example 48, 3-(2-(5-Benzyloxy-thiophen-2-ylmethyl)-2H-tetrazol-5-yl)-pyridin-2-ylamine]
[1]
  MIC: 0.39 µg/mL (≈ 1.07 µM)
[2]
  MIC: 1.56 µg/mL (≈ 4.28 µM)

## COCc1ccc(-c2cn(Cc3ccc(Cc4ccc(Cl)o4)cc3)nn2)c(N)n1 [Example 19, 3-(1-(4-(5-Chloro-furan-2-ylmethyl)-benzyl)-1H-[1,2,3]triazol-4-yl)-6-methoxymethyl-pyridin-2-ylamine]
[1]
  MIC: 0.39 µg/mL (≈ 0.952 µM)
[2]
  MIC: 3.13 µg/mL (≈ 7.64 µM)

## Nc1ncccc1-c1cn(Cc2cccc(Oc3ccccc3)c2)nn1 [Example 28, 3-(1-(3-Phenoxy-benzyl)-1H-[1,2,3]triazol-4-yl)-pyridin-2-ylamine]
[1]
  MIC: 0.1 µg/mL (≈ 0.291 µM)
[2]
  MIC: 1.56 µg/mL (≈ 4.54 µM)

## Nc1ncccc1-c1cn(Cc2ccc(Cc3ccc(Cl)o3)cc2)nn1 [Example 16, 3-(1-(4-(5-Chloro-furan-2-ylmethyl)-benzene)-1H-[1,2,3]triazol-4-yl)-pyridin-2-ylamine]
[1]
  MIC: 0.05 µg/mL (≈ 0.137 µM)
[2]
  MIC: 0.78 µg/mL (≈ 2.13 µM)

## Nc1ccc(-c2nnn(Cc3ccc(Cc4ccc(Cl)o4)cc3)n2)c(N)n1 [Example 22, 3-(2-(4-(5-Chloro-furan-2-ylmethyl)-benzyl)-2H-tetrazol-5-yl)-pyridin-2,6-diamine]
[1]
  MIC: 0.39 µg/mL (≈ 1.02 µM)
[2]
  MIC: 1.56 µg/mL (≈ 4.09 µM)

## Nc1ccc(-c2nnc(Cc3ccc(OCc4ccccc4)cc3)s2)c(N)n1 [Example 10]
[1]
  MIC: 3.13 µg/mL (≈ 8.04 µM)
[2]
  MIC: 25 µg/mL (≈ 64.2 µM)

## Nc1ncccc1-c1cn(Cc2ccc(COc3ccccc3)cn2)nn1 [Example 37, 3-(1-(5-Phenoxymethyl-pyridin-2-ylmethyl)-1H-[1,2,3]triazol-4-yl)-pyridin-2-ylamine]
[1]
  MIC: 0.2 µg/mL (≈ 0.558 µM)
[2]
  MIC: 1.56 µg/mL (≈ 4.35 µM)

## Nc1ncccc1-c1nnn(Cc2cccc(Oc3ccccc3)c2)n1 [Example 31, 3-(2-(3-Phenoxy-benzyl)-2H-tetrazol-5-yl)-pyridin-2-ylamine]
[1]
  MIC: 0.39 µg/mL (≈ 1.13 µM)
[2]
  MIC: 0.78 µg/mL (≈ 2.26 µM)

## Nc1ncccc1-c1nnn(Cc2ccc(Cc3ccc(Cl)o3)cc2)n1 [Example 21, 3-(2-(4-(5-Chloro-furan-2-ylmethyl)-benzyl)-2H-tetrazol-5-yl)-pyridin-2-ylamine]
[1]
  MIC: 0.39 µg/mL (≈ 1.06 µM)
[2]
  MIC: 0.39 µg/mL (≈ 1.06 µM)

## Nc1ncccc1-c1noc(Cc2ccc(OCc3ccccc3)cc2)n1 [Example 13, 3-(5-(4-Benzyloxy-benzyl)-[1,2,4]-oxadiazol-3-yl)-pyridin-2-ylamine]
[1]
  MIC: 1.56 µg/mL (≈ 4.35 µM)
[2]
  MIC: 1.56 µg/mL (≈ 4.35 µM)

## COCc1ccc(-c2nnc(Cc3ccc(OCc4ccccc4)cc3)o2)c(N)n1 [Example 11]
[1]
  MIC: 6.25 µg/mL (≈ 15.5 µM)
[2]
  MIC: 3.13 µg/mL (≈ 7.78 µM)

## Nc1ncccc1-c1nnn(Cc2ccccc2)n1 [Example 49, 3-(2-Benzyl-2H-tetrazol-5-yl)-pyridin-2-ylamine]
[1]
  MIC: 1.56 µg/mL (≈ 6.18 µM)
[2]
  MIC: 12.5 µg/mL (≈ 49.5 µM)

## CCOc1ccc(Cn2nnc(-c3cccnc3N)n2)cc1 [Example 50, 3-(2-(4-Ethoxy-benzyl)-2H-tetrazol-5-yl)-pyridin-2-ylamine]
[1]
  MIC: 6.25 µg/mL (≈ 21.1 µM)
[2]
  MIC: > 25 µg/mL
